Assay results published in PubChem BioAssay (NCI).
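Five concentrations, 48 hours, 96-well plates. At the GI50, growth is halved. TGI denotes the concentration required for complete inhibition of growth.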

Columns and labels:
Experiment in all cases: NCI tumour cell line growth inhibition, 48 h
[1] = tested on: SF-268 CNS
[2] = tested on: T-47D breast
[3] = tested on: SK-MEL-2 melanoma
[4] = tested on: UACC-62 melanoma
[5] = tested on: HL-60(TB) leukemia
[6] = tested on: NCI/ADR-RES ovarian
[7] = tested on: EKVX NSCLC
[8] = tested on: SK-MEL-28 melanoma
[9] = tested on: ACHN renal
[10] = tested on: HOP-92 NSCLC

O=S(=O)(NC1=NCCN1C(=S)SN1CCn2c1nsc2=S)c1cccc2ccccc12
GI50 [1]: 23.3 µM
TGI [1]: > 100 µM
GI50 [2]: 20.2 µM
TGI [2]: > 100 µM
GI50 [3]: 17.5 µM
TGI [3]: 44.1 µM
GI50 [4]: 21 µM
TGI [4]: 71.6 µM
GI50 [5]: 30.9 µM
TGI [5]: 99.3 µM
GI50 [6]: 45.5 µM
TGI [6]: > 100 µM
GI50 [7]: 25.8 µM
TGI [7]: > 100 µM
GI50 [8]: 58.6 µM
TGI [8]: > 100 µM
GI50 [9]: 27.5 µM
TGI [9]: > 100 µM

NS(=O)(=O)c1ccc(-n2nc3c(c2-c2ccc(Cl)cc2)Cc2ccccc2-3)cc1
GI50 [1]: 22.4 µM
TGI [1]: 50.4 µM
GI50 [10]: 11.6 µM
TGI [10]: 24.5 µM
GI50 [2]: 91 µM
TGI [2]: > 100 µM
GI50 [3]: 13.6 µM
TGI [3]: 29.3 µM
GI50 [4]: 13.7 µM
TGI [4]: 26.9 µM
GI50 [6]: 19.6 µM
TGI [6]: 44.8 µM
GI50 [7]: 17.1 µM
TGI [7]: 33.5 µM
GI50 [8]: 18.3 µM
TGI [8]: 35 µM
GI50 [9]: 19.8 µM
TGI [9]: 34.6 µM

COC(=O)C1C(O)CCC2CN3CCc4c([nH]c5ccccc45)C3CC21 (stereo unspecified)
TGI [1]: > 100 µM
TGI [10]: > 100 µM
TGI [2]: > 100 µM
TGI [3]: > 100 µM
TGI [4]: > 100 µM
TGI [6]: > 100 µM
TGI [7]: > 100 µM
TGI [8]: > 100 µM
GI50 [9]: > 100 µM
TGI [9]: > 100 µM

O=C1c2ccccc2-[n+]2ccc3c([nH]c4ccccc43)c21
TGI [1]: 1.3 µM
TGI [2]: 3.52 µM
TGI [3]: 0.427 µM
TGI [4]: 0.699 µM
TGI [5]: 1.38 µM
TGI [6]: 4.61 µM
TGI [7]: 1.6 µM
TGI [8]: 1.16 µM
TGI [9]: 4.08 µM

CCOC(=O)C(Cc1c[nH]c2c(N(CCO)CCO)cccc12)(NC(C)=O)C(=O)OCC
GI50 [1]: > 1000 µM
TGI [1]: > 1000 µM
GI50 [10]: > 1000 µM
TGI [10]: > 1000 µM
GI50 [2]: 396 µM
TGI [2]: > 1000 µM
GI50 [4]: 263 µM
TGI [4]: > 1000 µM
GI50 [5]: 318 µM
TGI [5]: > 1000 µM
GI50 [6]: > 1000 µM
TGI [6]: > 1000 µM
GI50 [7]: > 1000 µM
TGI [7]: > 1000 µM
GI50 [8]: 736 µM
TGI [8]: > 1000 µM
GI50 [9]: 119 µM
TGI [9]: > 1000 µM

COc1ccc(NC(=O)CSC2=C(Nc3cccc(Br)c3)C(=O)N(Cc3ccccc3)C2=O)cc1Cl
GI50 [1]: 21.5 µM
TGI [1]: > 100 µM
GI50 [10]: 24.5 µM
TGI [10]: > 100 µM
GI50 [2]: > 100 µM
TGI [2]: > 100 µM
GI50 [3]: > 100 µM
TGI [3]: > 100 µM
GI50 [4]: 46.2 µM
TGI [4]: > 100 µM
GI50 [5]: 3.41 µM
TGI [5]: > 100 µM
GI50 [7]: 84.8 µM
TGI [7]: > 100 µM
GI50 [8]: > 100 µM
TGI [8]: > 100 µM
GI50 [9]: > 100 µM
TGI [9]: > 100 µM
